Results from publication PMC5700813, “A recombinant BBSome core complex and how it interacts with ciliary cargo” (eLife, 2017).
Entries after “also recorded” stand apart in the source; their conditions may differ. Ends that are not written are not given here. Peptide text beside a SMILES is read from it.

B1: Arl6•GppNHp: Arl6 (residues 17–186, Q73L, C-terminal Strep-tag) with the nucleotide exchanged to GppNHp (protein)
chain: EVHVLCLGLDNSGKTTIINKLKPSNAQSQNILPTIGFSIEKFKSSSLSFTVFDMSGLGRYRNLWEHYYKEGQAIIFVIDSSDRLRMVVAKEELDTLLNHPDIKHRRIPILFFANKMDLRDAVTSVKVSQLLCLENIKDKPWHICASDAIKGEGLQEGVDWLQDQIQTVKT
modifications: left off: Strep-tag, C-terminal, kept
notes: Arl6 (residues 17–186, Q73L, C-terminal Strep-tag) with the nucleotide exchanged to GppNHp
B2: Arl6•GDP: Arl6 (residues 17–186, Q73L, C-terminal Strep-tag) with the nucleotide exchanged to GDP (protein)
chain: B1 chain
modifications: left off: Strep-tag, C-terminal, kept
notes: Arl6 (residues 17–186, Q73L, C-terminal Strep-tag) with the nucleotide exchanged to GDP

Tested on: core BBSome
Assay: Pulldown of core BBSome with immobilized bait on Streptactin beads
Assay type: binding, human
Details: 7.5 fold molar excess of bait immobilized to Streptactin-coupled Sepharose beads
Source text: From previous data, BBS1 seems to be the BBSome subunit most relevant for cargo recognition and Arl6 binding. We first tested the binding of Arl6 to the BBSome core complex. […] To test whether the core BBSome can recognize known BBSome cargo proteins, we generated a truncated (residues R546-L665) version of the Smo receptor, which contains a ciliary targeting motif predicted to interact with the BBSome ([Zhang et al., 2012a]; [Seo et al., 2011]; [Corbit et al., 2005]). In pulldown experiments as described above (Figure 3), the binding was clearly detectable, but considerably weaker than that of Arl6•GppNHp. In fluorescence polarization experiments (see below), we determined the affinity for a fluoresceine-labeled version of this Smo fragment to be 36.1 ± 3.9 µM.
Figure 3. Pulldown of core BBSome with immobilized Arl6 and Smoothened domain R546-L665. Purified core BBSome samples were pulled down by a 7.5 fold molar excess of Arl6•GDP, Arl6•GppNHp or Smo(R546-L665) immobilized to Streptactin-coupled Sepharose beads. […] Smo(R546-L665) bound weaker, but still captured >2% of the BBSome sample. This was approximated by a comparison of the 1:50 diluted Arl6•GppNHp elution with the undiluted Smo(R546-L665) elution in a Flag-blot against Flag-BBS8 from the BBSome core complex.
Pulldown assays were performed using 20 µl Strep-Tactin Superflow high capacity resin (IBA, Germany) per assay equilibrated with pulldown buffer (50 mM Hepes pH 8.0, 150 mM NaCl, 5 mM MgCl2, 5 mM ß-ME and 0.05% DDM). Smo(R546-L665, N-terminal Strep-tag) and Arl6 (residues 17–186, Q73L, C-terminal Strep-tag, with the nucleotide exchanged to either GDP or GppNHp) was immobilized as the bait, and the 6mer BBSome core complex served as the prey (The dual-Strep-tag on BBS18 within the complex was completely removed by Prescission protease cleavage for this experiment). 35 µg of the bait proteins were incubated with the beads in 1 ml pulldown buffer at 4°C for 1 hr, and the unbound protein was washed away with 3 × 1 ml pulldown buffer. […]

| Molecule | pulldown of core BBSome (result in words) |
| --- | --- |
| B1 | precipitated the major part of the BBSome |
| B2 | no detectable affinity; also recorded: no interaction |

Same assay, conditions: 7.5 fold molar excess of bait immobilized to Streptactin-coupled Sepharose beads; listed as Arl6•GppNHP

| Molecule | pulldown of core BBSome (result in words) |
| --- | --- |
| B1 | captured most of the BBSome sample |

Tested on: T1, core BBSome (BBS1,4,5,8,9,18)
T1 construct: His-tag; made in house; host or cells: Hi5 insect cells (baculovirus)
Assay: Fluorescence polarization binding of fluorescently labeled peptides to the core BBSome
Design: species or system human
Details: not given
Source text: Our microarray data indicated multiple closely spaced binding epitopes in several cases. Where possible, we combined those epitopes into a single fluorescent peptide with up to 37 residues length to more fully reflect the binding site/motif. […] Cargo binding to the core BBSome with fluorescence polarization, measured by using fluorescently labeled peptides and the purified core BBSome. […] All peptides were N-terminally labeled with fluorescein, with an exception of a C-terminally TMR-labeled SSTR3 CT1 peptide (orange squares) that was used as a control to exclude nonspecific binding events due to the used fluorophore. […] (Data points exceeding this mark might indicate secondary binding events at high BBSome concentrations). (C) Fluorescent peptides from the C-terminus of Smo (Smo CT1-4) and a truncated Smoothened construct (Smo […]-[…]) were analyzed as described above. (D) The peptide SSTR3 CT2 that bound with highest affinity to the core BBSome was used as a template for the design and analysis of mutant peptides (SSTR3 CT3-9) with substitutions of one or multiple residues as indicated. Polarization experiments were performed as described above and dissociation constants (KD) are presented as ratios to the KD of the wild type peptide as a bar diagram. (E) Bar diagram of the relative affinities of SmoCT1 and CT3 relative to SmoCT4, as determined in C, and of mutant Smo CT4 peptides with substitutions as indicated. […] Cargo binding to the core BBSome. […] Core BBSome was added at the indicated concentrations and the increase in fluorescence polarization was monitored as a measure for the peptides binding to the protein complex. […] Mutational analysis of the BBSome binding peptides. […] The peptides SSTR3 CT2 (A) and of Smo CT4 (B) that bound with highest affinity to the core BBSome were used as templates for the design of mutant peptides with one or multiple aromatic/basic residue motifs changed to alanines as summarized in Table 1. Core BBSome was added at the indicated concentrations and the increase in fluorescence polarization was monitored as a measure for the peptides binding to the protein complex. […] Fluorescently labeled peptides were purchased from Proteogenix (Proteogenix SAS, France). Fluorescein-labels are located N-terminally to the peptide sequence and TAMRA at the C-terminal side. Fluorescence polarization experiments were performed using a Fluoromax-4 spectrophotometer (HORIBA Jobin Yvon, Germany) or a Safire two multimode plate reader (Tecan, Switzerland). Fluoresceine-labeled samples were measured with excitation/emission wavelengths of λEx = 490 nm and λEm = 520 nm with a bandwidth of 7 nm on the Fluoromax-4. […] Sample volumes were 20 μl in a 1,5 × 1,5 mm cuvette (Hellma Analytics, Germany) for the Fluoromax-4 and 4.5 μl in a 384 well low-binding plate (Corning, Germany). Data analysis was done with the Origin 9.0 program suite (Originlab, Northampton, MA). The polarization curves were fit against the function FI = Fmin […] Fmax corresponding to the fluorescence polarization signal and the signal of unbound and completely saturated fluorescent molecule E with interaction partner L, respectively. The concentrations of molecule E are indicated in the corresponding figure legends, and the calculated dissociation constants KD are listed in Table 1.

T1 sequence (Q8NFJ9 whole entry, stated change not applied): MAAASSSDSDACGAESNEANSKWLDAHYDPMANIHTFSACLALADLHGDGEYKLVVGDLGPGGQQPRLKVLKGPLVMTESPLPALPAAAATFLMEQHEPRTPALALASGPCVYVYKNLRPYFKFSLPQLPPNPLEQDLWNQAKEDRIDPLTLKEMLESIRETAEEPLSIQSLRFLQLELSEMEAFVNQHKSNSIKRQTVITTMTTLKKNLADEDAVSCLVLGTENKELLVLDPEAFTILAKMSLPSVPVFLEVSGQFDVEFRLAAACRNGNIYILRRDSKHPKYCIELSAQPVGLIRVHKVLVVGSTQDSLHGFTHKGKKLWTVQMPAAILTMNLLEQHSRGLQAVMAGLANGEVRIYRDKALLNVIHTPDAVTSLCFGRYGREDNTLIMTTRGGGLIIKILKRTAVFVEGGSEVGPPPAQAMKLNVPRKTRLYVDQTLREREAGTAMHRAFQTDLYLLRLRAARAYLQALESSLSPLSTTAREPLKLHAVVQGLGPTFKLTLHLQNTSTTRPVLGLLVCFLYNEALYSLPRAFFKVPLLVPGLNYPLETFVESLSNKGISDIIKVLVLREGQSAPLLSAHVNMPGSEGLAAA
T1 sequence (Q96RK4 whole entry, stated change not applied, further chain): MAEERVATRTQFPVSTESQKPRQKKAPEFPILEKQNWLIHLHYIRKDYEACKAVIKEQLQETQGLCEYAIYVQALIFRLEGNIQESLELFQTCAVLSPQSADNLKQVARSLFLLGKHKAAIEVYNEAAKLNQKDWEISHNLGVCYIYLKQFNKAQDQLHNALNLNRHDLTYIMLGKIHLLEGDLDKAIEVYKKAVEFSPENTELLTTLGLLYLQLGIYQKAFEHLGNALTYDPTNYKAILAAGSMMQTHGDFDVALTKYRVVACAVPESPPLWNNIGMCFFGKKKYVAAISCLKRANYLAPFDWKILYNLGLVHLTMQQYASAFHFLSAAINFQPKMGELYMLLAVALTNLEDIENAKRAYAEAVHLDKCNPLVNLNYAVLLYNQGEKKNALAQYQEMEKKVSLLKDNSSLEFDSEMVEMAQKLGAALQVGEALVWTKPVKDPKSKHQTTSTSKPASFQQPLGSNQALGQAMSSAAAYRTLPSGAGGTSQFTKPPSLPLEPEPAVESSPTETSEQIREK
T1 sequence (Q8N3I7 whole entry, stated change not applied, further chain): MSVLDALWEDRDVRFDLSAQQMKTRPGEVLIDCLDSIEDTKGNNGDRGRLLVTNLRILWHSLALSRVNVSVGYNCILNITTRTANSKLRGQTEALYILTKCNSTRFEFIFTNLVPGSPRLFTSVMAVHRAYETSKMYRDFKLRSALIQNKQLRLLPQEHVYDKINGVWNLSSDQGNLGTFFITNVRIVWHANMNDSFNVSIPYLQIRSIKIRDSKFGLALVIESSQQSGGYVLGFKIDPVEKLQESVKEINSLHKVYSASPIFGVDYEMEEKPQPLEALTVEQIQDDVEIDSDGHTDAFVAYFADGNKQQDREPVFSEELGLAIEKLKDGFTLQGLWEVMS
T1 sequence (Q8TAM2 with tags, fused parts or gaps isoform Q8TAM2-4 DEL39-48, further chain): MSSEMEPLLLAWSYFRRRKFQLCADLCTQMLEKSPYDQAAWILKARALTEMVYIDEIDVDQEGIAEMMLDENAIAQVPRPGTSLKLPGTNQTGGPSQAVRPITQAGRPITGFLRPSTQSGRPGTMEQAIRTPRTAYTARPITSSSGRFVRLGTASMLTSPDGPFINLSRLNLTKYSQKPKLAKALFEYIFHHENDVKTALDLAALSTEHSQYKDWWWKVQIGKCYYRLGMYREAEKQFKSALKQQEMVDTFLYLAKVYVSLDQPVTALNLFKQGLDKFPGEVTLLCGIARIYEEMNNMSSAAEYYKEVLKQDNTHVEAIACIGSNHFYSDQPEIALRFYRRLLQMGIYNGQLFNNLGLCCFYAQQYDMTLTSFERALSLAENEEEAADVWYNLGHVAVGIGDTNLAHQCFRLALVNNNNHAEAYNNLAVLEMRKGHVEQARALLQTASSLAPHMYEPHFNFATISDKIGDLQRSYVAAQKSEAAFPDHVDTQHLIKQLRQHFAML
T1 sequence (Q3SYG4 whole entry, stated change not applied, further chain): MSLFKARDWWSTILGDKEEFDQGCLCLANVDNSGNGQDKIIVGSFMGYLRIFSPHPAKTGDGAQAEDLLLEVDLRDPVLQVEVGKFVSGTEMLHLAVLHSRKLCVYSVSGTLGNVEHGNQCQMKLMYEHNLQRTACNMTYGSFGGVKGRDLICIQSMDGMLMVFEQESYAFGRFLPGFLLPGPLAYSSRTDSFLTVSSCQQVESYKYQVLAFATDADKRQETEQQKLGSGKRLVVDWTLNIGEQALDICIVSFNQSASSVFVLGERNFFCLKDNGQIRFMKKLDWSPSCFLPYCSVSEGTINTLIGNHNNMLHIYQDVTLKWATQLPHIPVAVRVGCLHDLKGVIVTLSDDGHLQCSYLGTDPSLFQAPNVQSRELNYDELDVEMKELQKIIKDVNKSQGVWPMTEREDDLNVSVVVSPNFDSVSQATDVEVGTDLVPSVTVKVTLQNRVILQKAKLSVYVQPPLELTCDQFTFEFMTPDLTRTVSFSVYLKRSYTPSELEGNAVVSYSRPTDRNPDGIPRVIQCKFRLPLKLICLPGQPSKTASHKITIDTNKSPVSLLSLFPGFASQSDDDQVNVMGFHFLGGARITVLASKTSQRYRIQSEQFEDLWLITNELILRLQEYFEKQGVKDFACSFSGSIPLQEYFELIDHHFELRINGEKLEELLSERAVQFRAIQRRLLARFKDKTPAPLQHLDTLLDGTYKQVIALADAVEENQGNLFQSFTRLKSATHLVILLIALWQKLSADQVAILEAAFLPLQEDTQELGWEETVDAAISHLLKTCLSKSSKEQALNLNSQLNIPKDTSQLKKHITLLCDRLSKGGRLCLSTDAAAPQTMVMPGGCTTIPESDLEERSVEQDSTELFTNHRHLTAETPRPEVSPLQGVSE
T1 sequence (A8MTZ0 whole entry partner): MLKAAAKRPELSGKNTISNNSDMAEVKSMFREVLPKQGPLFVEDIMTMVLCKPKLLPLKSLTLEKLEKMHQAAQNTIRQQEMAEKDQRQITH

| binding to core BBSome (result in words) | Molecule |
| --- | --- |
| only weak interaction | KRIKKSKMIAKAFSK [Smo CT2] |

Same assay, conditions: N-terminally fluorescein-labeled peptide 0.1–1 µM titrated with purified core BBSome, fitted to binding curve

| Molecule | Kd |
| --- | --- |
| TLLIAARTAARLTGQSDDE [Smo CT7] | 14.3 µM |

Same assay, conditions: N-terminally fluorescein-labeled peptide 0.1–1 µM titrated with purified core BBSome, fitted to binding curve, read-out: KD (converted)

| Kd | Molecule |
| --- | --- |
| 68.8 ± 11.3 µM | RILQRMTSSVAPASQRSIRLRTKRVTRT [MCH 3ICL] |
| 4.7 µM | GFLSYRFKQGFRRVLLRPSEEVES [SSTR3 CT9] |
| 1.4 µM | TLLIWRRTWCRLTGQSDDEPKRIKKSKMIAKAFSKRH [Smo CT3] |
| 1.8 ± 0.5 µM | TLLIWRRTWCRLTGQ [Smo CT1] |
| 1.5 µM | GFLSYRFKQGAARVLLRPSRRVRS [SSTR3 CT5] |
| 1 µM | GFLSAAAAQGFRRVLLRPSRRVRS [SSTR3 CT7] |
| > 100 µM | KRIKKSKMIAKAFSK [Smo CT2] |
| 12.8 ± 1.07 µM | VKVRSAGRRVWAPSCQRRRRSERRVTRM [SSTR3 3ICL] |
| 6.8 µM | KRLGRKKKRRKRKKE [Smo CT8] |
| 11 µM | GFLSAAAAQGAARVLLRPSRRVRS [SSTR3 CT8] |
| 18.1 ± 1.6 µM | LLIGLRLRRERLLLMQEAKGRG [NMU 3ICL1] |
| 1.1 µM | TLLIWRRTWCRLTGQSDDE [Smo CT4] |
| 1.1 µM | GFLSAAFKQGFRRVLLRPSRRVRS [SSTR3 CT3] |
| 6.3 ± 1.5 µM | FIFRVARVKARKVHCG [GPR161 3ICL] |
| > 100 µM | GRGSAAARSRYTCRLQQHDRGRRQ [NMU 3ICL2, N-terminally fluorescein-labeled peptide from the third intracellular loop of NMU-R1] |
| 0.4 µM | GFLSYRAAQGFRRVLLRPSRRVRS [SSTR3 CT4] |
| 4.5 µM | GFLSAAFKQGAARVLLRPSRRVRS [SSTR3 CT6] |
| 67.4 ± 7.3 µM | NKTVRKELLGMCFGDRYYREPFVQRQR [GPR161 CT1] |
| 44.2 ± 10.9 µM | CC(C)C[C@H](NC(=O)[C@H](C)NC(=O)[C@H](CCCNC(=N)N)NC(=O)[C@H](CCCCN)NC(=O)[C@H](Cc1ccccc1)NC(=O)[C@H](CC(=O)O)NC(=O)[C@@H](N)CCCNC(=N)N)C(=O)NCC(=O)N[C@@H](CCCNC(=N)N)C(=O)N[C@@H](Cc1ccccc1)C(=O)N[C@@H](CC(C)C)C(=O)N1CCC[C@H]1C(=O)N[C@@H](CS)C(=O)N1CCC[C@H]1C(=O)N[C@@H](CCCNC(=N)N)C(=O)N[C@@H](CS)C(=O)N1CCC[C@H]1C(=O)N[C@@H](CCCNC(=N)N)C(=O)N[C@@H](CCC(=O)O)C(=O)N[C@@H](CCCNC(=N)N)C(=O)O [5HT6 CT] (H-RDFKRALGRFLPCPRCPRER-OH) |
| > 100 µM | VTARTVPGGGFGGRRGSRTLVS [GPR161 CT2, N-terminally fluorescein-labeled peptide from the C-terminal region of GPR161] |
| 22.1 ± 1.4 µM | RFKQGFRRVLLRPSR [SSTR3 CT1] |
| 9.7 µM | TLLIAARTWCRLTGQSDDE [Smo CT5] |
| 12.5 µM | TLLIWRRTAARLTGQSDDE [Smo CT6] |
| 0.11 µM | GFLSYRFKQGFRRVLLRPSRRVRS [SSTR3 CT2] |
